# From PMC2263054, “Functional evolution of the vitamin D and pregnane X receptors” (BMC Evolutionary Biology, 2007)
# Columns and labels:
# Xenopus laevis VDR = molecular target: T1, Xenopus laevis VDR (Xenopus laevis, UniProt O13124); assay: luciferase reporter transactivation assay in HepG2-NTCP cells, GAL4/xlVDR LBD chimera with tk-UAS-Luc; assay type: cell-based; details: for Xenopus VDR EC50 ± SD: HepG2-NTCP cells, luciferase reporter, unit not given, also cells saying No effect
# T1 sequence (O13124 90-422): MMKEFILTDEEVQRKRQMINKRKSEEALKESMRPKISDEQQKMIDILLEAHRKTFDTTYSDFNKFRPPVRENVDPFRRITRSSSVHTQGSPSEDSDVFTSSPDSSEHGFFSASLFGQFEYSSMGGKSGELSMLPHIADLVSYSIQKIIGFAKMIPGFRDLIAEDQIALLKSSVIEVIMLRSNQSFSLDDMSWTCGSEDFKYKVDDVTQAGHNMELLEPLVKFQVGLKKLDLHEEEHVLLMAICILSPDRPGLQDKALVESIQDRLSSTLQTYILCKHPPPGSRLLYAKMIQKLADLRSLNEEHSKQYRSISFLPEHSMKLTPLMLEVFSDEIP
# [1] = test system: ethoxyresorufin O-deethylase (EROD) activity (CYP1A-like activity); assay: EROD assay in zebrafish primary hepatocytes; details: for maximal rate of EROD activity: zebrafish primary hepatocytes, 24 hour exposure (Figure 3 legend: 48-hour)
# Protocol: (§1) The cells are cultured at 26°C in ambient atmosphere.
# [2] = test system: testosterone 6β-hydroxylation activity (CYP3A-like activity); assay: testosterone hydroxylation (HPLC) in zebrafish primary hepatocytes
# Protocol: as §1
# (§2) 100 μL of sample, calibration standard, or quality material standard were pipetted into separate microcentrifuge tubes and mixed with 100 μL of methanol. Samples were vortexed and centrifuged at 13,000 rpm for 4 min. The supernatant was then injected into the HPLC.
# (§3) The flow rate was 1.2 mL/min and total run time was 25 min.
# Zebrafish VDR = molecular target: T2, Zebrafish VDR (Danio rerio, UniProt Q9PTN2); assay: luciferase reporter transactivation assay in HepG2-NTCP cells, GAL4/zfVDR LBD chimera with tk-UAS-Luc; assay type: cell-based; details: for Zebrafish VDR EC50 ± SD: HepG2-NTCP cells, luciferase reporter, unit not given, also cells saying No effect
# T2 sequence (Q9PTN2 121-453): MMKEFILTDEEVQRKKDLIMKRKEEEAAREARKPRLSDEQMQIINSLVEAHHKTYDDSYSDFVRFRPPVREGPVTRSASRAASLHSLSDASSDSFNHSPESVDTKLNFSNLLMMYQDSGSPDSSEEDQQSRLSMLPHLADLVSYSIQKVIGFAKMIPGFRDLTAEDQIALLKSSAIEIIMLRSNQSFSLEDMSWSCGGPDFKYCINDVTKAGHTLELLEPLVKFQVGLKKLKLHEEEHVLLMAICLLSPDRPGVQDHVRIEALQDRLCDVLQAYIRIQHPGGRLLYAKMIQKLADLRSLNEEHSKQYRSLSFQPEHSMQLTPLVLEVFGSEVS
# EROD activity [3] = assay: EROD assay in sea lamprey primary hepatocytes; details: 24–48 hr exposure
# zebrafish PXR = details: luciferase reporter in HepG2 cells, normalized to 20 μM androstanol
# [4] = test system: testosterone 6β-hydroxylation; assay: testosterone hydroxylation (HPLC) in sea lamprey primary hepatocytes; assay type: cell-based; details: concentration ranges per compound
# Protocol: as §2, §3
# EROD activity [5] = assay: EROD assay in African clawed frog primary hepatocytes; assay type: cell-based, Xenopus laevis; details: 48 hour exposure
# Protocol: Xenopus laevis primary hepatocytes were cultured by a protocol adapted from a published report. Frogs are sacrificed with MS-222, rinsed with 70% ethanol, and the liver lobes perfused via the heart, initially with 375 mL Barth (88 mM NaCl, 1 mM K2SO4, and 10 mM HEPES-NaOH, pH 7.4) containing 0.82 mM MgCl2 and 0.1 mg/mL heparin, and then with 25 mL Barth containing 2.22 mM Ca(NO3)2, 2.74 mM CaCl2, and 200 U/mL type I collagenase (Worthington Chemicals, Lakewood, NJ). Livers are minced to fine pieces in 12.5 mL Barth-collagenase solution and then incubated for 10 min at room temperature, periodically disaggregating the liver pieces with a Pasteur pipette. The liver cells are then placed on a shaking incubator for 5 min at room temperature, followed by another 10 min of periodic pipetting to complete disaggregation. Cells are then filtered through a 130 μm Nitex nylon mesh (Fisher Scientific), following by spinning at 500 g for 5 min at 4°C. The supernatant is then aspirated and diluted to 50 mL with Barth plus MgCl2 and then allowed to settle while cooled in ice for 30 min. The supernatant is removed, and the cellular pellet is resuspended and subjected to one more round of nylon mesh filtration, dilution in Barth plus MgCl2, and settling while cooled in ice. […]
# Sea lamprey VDR = molecular target: T3, Sea lamprey VDR (Petromyzon marinus, UniProt Q7ZZY9); assay type: cell-based; details: for Sea lamprey VDR EC50 ± SD: HepG2-NTCP cells, luciferase reporter, unit not given, also cells saying No effect
# T3 sequence (Q7ZZY9 92-406): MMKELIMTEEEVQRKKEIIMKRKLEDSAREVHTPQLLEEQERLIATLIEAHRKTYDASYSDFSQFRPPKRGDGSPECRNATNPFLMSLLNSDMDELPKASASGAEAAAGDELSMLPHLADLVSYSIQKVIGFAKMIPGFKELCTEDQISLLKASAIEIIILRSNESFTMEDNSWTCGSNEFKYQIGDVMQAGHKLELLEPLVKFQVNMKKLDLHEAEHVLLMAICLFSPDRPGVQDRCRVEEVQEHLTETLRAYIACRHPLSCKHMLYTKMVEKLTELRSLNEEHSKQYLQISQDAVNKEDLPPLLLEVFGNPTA
# Human VDR = molecular target: T4, Human VDR (Homo sapiens, UniProt P11473); assay: luciferase reporter transactivation assay in HepG2-NTCP cells, full-length hVDR with CYP3A4-PXRE-Luc; details: HepG2-NTCP cells, luciferase reporter; unit not given; also cells saying No effect
# T4 sequence (P11473 1-427): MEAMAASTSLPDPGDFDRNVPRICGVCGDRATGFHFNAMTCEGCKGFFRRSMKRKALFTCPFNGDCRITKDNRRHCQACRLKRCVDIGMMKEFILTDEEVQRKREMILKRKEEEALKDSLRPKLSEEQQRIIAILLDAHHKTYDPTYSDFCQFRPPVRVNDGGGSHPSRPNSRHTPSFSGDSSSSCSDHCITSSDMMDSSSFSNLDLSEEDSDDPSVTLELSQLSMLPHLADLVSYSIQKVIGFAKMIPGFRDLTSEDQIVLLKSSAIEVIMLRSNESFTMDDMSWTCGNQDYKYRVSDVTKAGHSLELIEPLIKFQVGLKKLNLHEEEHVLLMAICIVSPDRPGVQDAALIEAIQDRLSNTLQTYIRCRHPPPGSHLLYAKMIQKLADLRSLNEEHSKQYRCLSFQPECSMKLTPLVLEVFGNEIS
# [6] = test system: 6β- and 12α-hydroxylation of testosterone; assay: testosterone hydroxylation (HPLC) in African clawed frog primary hepatocytes; assay type: cell-based, Xenopus laevis; details: relative to vehicle control
# Protocol: Xenopus laevis primary hepatocytes were cultured by a protocol adapted from a published report. Frogs are sacrificed with MS-222, rinsed with 70% ethanol, and the liver lobes perfused via the heart, initially with 375 mL Barth (88 mM NaCl, 1 mM K2SO4, and 10 mM HEPES-NaOH, pH 7.4) containing 0.82 mM MgCl2 and 0.1 mg/mL heparin, and then with 25 mL Barth containing 2.22 mM Ca(NO3)2, 2.74 mM CaCl2, and 200 U/mL type I collagenase (Worthington Chemicals, Lakewood, NJ). Livers are minced to fine pieces in 12.5 mL Barth-collagenase solution and then incubated for 10 min at room temperature, periodically disaggregating the liver pieces with a Pasteur pipette. The liver cells are then placed on a shaking incubator for 5 min at room temperature, followed by another 10 min of periodic pipetting to complete disaggregation. Cells are then filtered through a 130 μm Nitex nylon mesh (Fisher Scientific), following by spinning at 500 g for 5 min at 4°C. The supernatant is then aspirated and diluted to 50 mL with Barth plus MgCl2 and then allowed to settle while cooled in ice for 30 min. The supernatant is removed, and the cellular pellet is resuspended and subjected to one more round of nylon mesh filtration, dilution in Barth plus MgCl2, and settling while cooled in ice. The supernatant is removed and the remaining cells are washed once with Barth plus MgCl2 and then centrifuged at 500 g for 5 min at 4°C. The cells are then resuspended in 0.6 × Coon's Modified Ham's F-12 medium (Invitrogen) supplemented with 0.1 × Barth (88 mM NaCl, 1 mM K2SO4, 10 mM HEPES), 200 U/mL penicillin G, 100 μg/mL streptomycin sulfate, 2 mM glutamine, 0.2% glucose, and 10 μg/mL bovine insulin (Calbiochem), with the final pH adjusted to 7.5. […] Cells are cultured at 20°C in ambient atmosphere.
# Testosterone metabolites were identified and quantitated by HPLC. […] The supernatant was then injected into the HPLC.
# Mouse VDR = molecular target: T5, Mouse VDR (Mus musculus, UniProt P48281); assay: luciferase reporter transactivation assay in HepG2-NTCP cells, full-length mVDR with CYP3A4-PXRE-Luc; details: HepG2-NTCP cells, luciferase reporter; unit not given; also cells saying No effect
# T5 sequence (P48281 1-422): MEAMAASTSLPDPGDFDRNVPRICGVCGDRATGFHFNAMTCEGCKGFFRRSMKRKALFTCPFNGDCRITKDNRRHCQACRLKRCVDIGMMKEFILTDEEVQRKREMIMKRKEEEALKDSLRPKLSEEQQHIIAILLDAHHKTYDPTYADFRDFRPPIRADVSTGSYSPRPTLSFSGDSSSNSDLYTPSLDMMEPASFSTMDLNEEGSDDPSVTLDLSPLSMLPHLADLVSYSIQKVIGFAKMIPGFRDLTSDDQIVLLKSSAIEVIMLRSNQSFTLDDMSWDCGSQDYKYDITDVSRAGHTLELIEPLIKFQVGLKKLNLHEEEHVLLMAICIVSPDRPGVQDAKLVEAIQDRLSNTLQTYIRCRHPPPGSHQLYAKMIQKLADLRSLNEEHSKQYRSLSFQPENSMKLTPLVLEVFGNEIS
# [7] = test system: flurbiprofen 4-hydroxylation activity (CYP2C-like activity); details: zebrafish primary hepatocytes, 48-hour exposure; TCDD 1 nM, androstanol 200 μM
# [8] = test system: Flurbiprofen 4-hydroxylation; assay: flurbiprofen hydroxylation assay in sea lamprey primary hepatocytes; assay type: cell-based; details: 48 hour treatment, 5α-petromyzonol 20 μM, 3-MC 5 μM, basal 2.8
# [9] = screening for activators, at least three concentrations of each drug
SMILES,Xenopus VDR EC50 ± SD (Xenopus laevis VDR),maximal rate of EROD activity [1] [pmol/min/mg protein],Zebrafish VDR EC50 ± SD (Zebrafish VDR),effect on EROD activity (EROD activity [3]),effect on testosterone 6β-hydroxylation [4],Sea lamprey VDR EC50 ± SD (Sea lamprey VDR),Human VDR EC50 ± SD (Human VDR),Mouse VDR EC50 ± SD (Mouse VDR),Flurbiprofen 4-hydroxylation activity [8] [nmol/min/mg protein],also measured
"Clc1cc2c(cc1Cl)Oc1cc(Cl)c(Cl)cc1O2 [2,3,7,8-Tetrachlorodibenzo-p-dioxin, 2,3,7,8-tetrachlorodibenzo-p-dioxin]",No effect,33.0,No effect,did not alter EROD activity,None of these compounds produced significant increases in testosterone 6β-hydroxylation,No effect,No effect,No effect,–,"Ciona VDR/PXR relative efficacy (Ciona VDR/PXR; relative to maximal reference compound (20 μM 6-formylindolo-[3,2-b]-carbazole, efficacy = 1.0)): 1.80; activation of ciVDR/PXR (Ciona VDR/PXR; unpublished data of the authors): activated; EC50 at 24 h ([1]; zebrafish, pH 7.8): 0.15 ± 0.022 nM; EC50 at 48 h ([2]; zebrafish): 0.154 ± 0.03 nM; maximal rate of testosterone 6β-hydroxylation ([2]; zebrafish primary hepatocytes, 48-hour exposure): 2830 pmol/min/mg protein; activation of recombinant zebrafish PXR (zebrafish PXR): all activate recombinant zebrafish PXR; maximal rate of EROD activity (EROD activity [5]): 9.8 pmol/min/mg protein; EC50 (EROD activity [5]; Xenopus laevis, Hepatocyte, read-out: EC50 for increase of EROD activity): 6.5 ± 0.77 nM; effect on 6β- and 12α-hydroxylation of testosterone [6]: neither activity was substantially increased relative to vehicle control; effect on flurbiprofen 4-hydroxylation activity [7]: Lesser increases relative to vehicle control"
Cc1ccc2cc3c(ccc4ccccc43)c3c2c1CC3 [3-Methylcholanthrene],–,28.1,–,did not alter EROD activity,None of these compounds produced significant increases in testosterone 6β-hydroxylation,–,–,–,0.33,"Effect on Xenopus laevis VDR (Xenopus laevis VDR; [9]): No effect; EC50 ([1]; zebrafish, pH 7.8): 373 ± 22 nM; Effect on zebrafish VDR (Zebrafish VDR; [9]): No effect; Effect on sea lamprey VDR (Sea lamprey VDR; [9]): No effect"
"C[C@H](CCCO)[C@H]1CC[C@H]2[C@@H]3[C@H](O)C[C@H]4C[C@H](O)CC[C@]4(C)[C@H]3C[C@H](O)[C@]12C [5α-Petromyzonol, 5α-cholan-3α,7α,12α,24-tetrol]",No effect,–,No effect,did not alter EROD activity,None of these compounds produced significant increases in testosterone 6β-hydroxylation,No effect,No effect,No effect,0.21,"Ciona VDR/PXR EC50 ± SD (Ciona VDR/PXR; HepG2-NTCP cells, luciferase reporter, unit not given, also cells saying No effect): No effect"
